ChEMBL document CHEMBL1833853, “Synthesis and in-vitro anticancer activity of 3,5-bis(indolyl)-1,2,4-thiadiazoles” (Bioorg Med Chem Lett, 2011)

Key:
Assay type in all cases: functional, cell-based
PC-3 = assay: Cytotoxicity against human PC3 cells
DU-145 = assay: Cytotoxicity against human DU145 cells
MDA-MB-231 = assay: Cytotoxicity against human MDA-MB-231 cells
LNCaP = assay: Cytotoxicity against human LNCAP cells
MCF7 = assay: Cytotoxicity against human MCF7 cells
MIA PaCa-2 = assay: Cytotoxicity against human MIAPaCa2 cells

Row | Structure (SMILES) | IC50 (PC-3) [µM] | IC50 (DU-145) [µM] | IC50 (MDA-MB-231) [µM] | IC50 (LNCaP) [µM] | IC50 (MCF7) [µM] | IC50 (MIA PaCa-2) [µM]
1 | c1ccc2c(-c3nsc(-c4c[nH]c5ccccc45)n3)c[nH]c2c1 | > 1000 | 248 | 702 | > 1000 | 143 | > 1000
2 | Cn1cc(-c2nsc(-c3cn(C)c4ccccc34)n2)c2ccccc21 | 92.3 | 64 | 236 | 226 | 177 | 185
3 | Clc1ccc(Cn2cc(-c3nsc(-c4cn(Cc5ccc(Cl)cc5)c5ccccc45)n3)c3ccccc32)cc1 | > 1000 | > 1000 | > 1000 | 413 | > 1000 | 101
4 | Brc1ccc2[nH]cc(-c3nsc(-c4c[nH]c5ccc(Br)cc45)n3)c2c1 | 162 | 56.7 | 100 | 159 | 31.3 | 124
5 | Cn1cc(-c2nsc(-c3cn(C)c4ccc(Br)cc34)n2)c2cc(Br)ccc21 | > 1000 | > 1000 | > 1000 | > 1000 | 63.6 | > 1000
6 | COc1ccc2[nH]cc(-c3nsc(-c4c[nH]c5ccc(OC)cc45)n3)c2c1 | 224 | 206 | > 1000 | 295 | 424 | 45.8
7 | COc1ccc2c(c1)c(-c1nsc(-c3cn(C)c4ccc(OC)cc34)n1)cn2C | 270 | 137 | 95.7 | 111 | 79.9 | 177
8 | COc1ccc2c(c1)c(-c1nsc(-c3cn(Cc4ccc(Cl)cc4)c4ccc(OC)cc34)n1)cn2Cc1ccc(Cl)cc1 | 21.4 | 370 | 67.9 | 14.6 | 32.1 | 21.2
9 | O=[N+]([O-])c1ccc2[nH]cc(-c3nsc(-c4c[nH]c5ccc([N+](=O)[O-])cc45)n3)c2c1 | 680 | 325 | 98.6 | 177 | 83.5 | 187
10 | Brc1ccc2c(-c3nsc(-c4c[nH]c5cc(Br)ccc45)n3)c[nH]c2c1 | 132 | 30.2 | 38.3 | 80.1 | 39.2 | 83
11 | COc1ccc2c(-c3nsc(-c4c[nH]c5cc(OC)ccc45)n3)c[nH]c2c1 | 76.1 | 42.3 | 44.3 | 35.8 | 35.3 | 95.3
12 | c1ccc2[nH]c(-c3nsc(-c4cc5ccccc5[nH]4)n3)cc2c1 | 326 | 453 | > 1000 | 247 | 162 | 102
13 | Cn1c(-c2nsc(-c3cc4ccccc4n3C)n2)cc2ccccc21 | 432 | > 1000 | > 1000 | 207 | 66.4 | 260
14 | c1ccc2c(Cc3nsc(Cc4c[nH]c5ccccc45)n3)c[nH]c2c1 | 44.2 | 51.2 | 65 | 43.3 | 40.5 | 31.3
